Key:
eosinophils = assay: Effect of Gal-9 on induced apoptosis of eosinophils; type: cell-based
MCF-7 = assay: Apoptosis analysis by PI method in MCF-7 cells; type: cell-based; details: incubation with galectin-9 at least 48 hr or more
Protocol: (§1) Apoptotic activity was measured by the PI method. When cells are incubated with galectin-9, washed, then subjected to alcohol-fixation, and fragmented DNAs flow out of the cell. Subsequently, incubation with PI leads to a reduction in the fluorescence intensity of apoptotic cells. Apoptosis was examined by the percentage of the cells wherein their fluorescence intensity was reduced. […] This induction was at the same level as H2O2 (hydrogen peroxide solution) that was used as a positive control. In addition, the same results were obtained by another method for examining apoptosis, TUNEL assay.

HL-60 = assay: Apoptosis analysis by PI method in HL60 cells; type: cell-based
Protocol: (§2) MOLT-4 (T cell), Jurkat (T cell), BALL-1 (B cell), THP-1 (acute monocytic leukemia derived cell), and HL60 (acute promyelotic leukemia derived cell) cells were obtained from American Type Culture Collection (ATCC). All the cell lines were maintained in an RPMI-1640 medium (Sigma, St. Louis, US) supplemented with 10% FCS in 5% Co2 at 37° C. Lactose (30 mM) was added to the culture medium to inhibit Gal-9 activity. The same concentration of sucrose was used as a control.
(§3) Cells that underwent apoptosis induction were centrifuged at 4° C. for 5 min at 1,000 rpm, and the cell pellet was resuspended in PBS (300 μL), and adjusted to a final concentration of 70% by gradually adding 100% cold ethanol (700 μL) to the suspended cells with vortexing. […] Stained cells were analyzed by flow cytometry (Sandstrom, K. et al., J Immunol Methods, 240: 55 (2000) and Zhang L. et al., Cancer Lett, 142: 129 (1999)) after removing aggregated cells through a nylon mesh and increasing the cell volume with PBS. […]
(§4) Apoptotic activity was measured by the PI method. […] Subsequently, incubation with PI leads to a reduction in the fluorescence intensity of apoptotic cells. Apoptosis was examined by the percentage of the cells wherein their fluorescence intensity was reduced. […]

THP-1 = assay: Apoptosis analysis by PI method in THP-1 cells; type: cell-based
Protocol: as §2, §3, §4

MOLT-4 cells [1] = assay: Effects of Gal-9 on DEX-, anti-Fas Ab- or etoposide-induced apoptosis; type: cell-based, human; details: FIG. 9
Source text: The following agents were purchased from suppliers below: DEX (BioVision, CA, US), anti-Fas Ab (clone CH-11, MBL), TNFα (Genzyme, Cambridge, Mass., US), C2 ceramide (SIGMA), and etoposide (Biovision).
Effects of Gal-9 on the apoptosis induced by other stimuli (e.g. DEX, anti-Fas Ab, and etoposide) were examined.

KATO-III = assay: Apoptosis analysis by PI method in KATO-III cells; type: cell-based; details: incubation with galectin-9 at least 48 hr or more
Protocol: as §1

MOLT-4 cells [2] = assay: Apoptosis analysis with Annexin V-PI in MOLT-4 cells; type: cell-based, human; details: 1 μM Gal-9; FIG. 1B; control 13.2%
Protocol: MEBCYTO (registered trademark) Apoptosis kit (MBL, Nagoya, Japan) was used for apoptosis analysis with Annexin V-PI. Experiments were carried out according to the manufacturer's instruction as follows. Briefly, cells that underwent apoptosis induction (2×10^5 cells/sample) were washed with PBS, and resuspended in the binding buffer. After adding Annexin V-FITC and 5 μL of PI (final concentration 5 μg/mL) in the kit to the cell suspension, cells were incubated for 15 min at room temperature in the dark. Analysis was conducted using flow cytometry (EPICS XL-MCL, CouHer, Miami, Fla., US).

Jurkat = assay: Apoptosis analysis by PI method in Jurkat cells; type: cell-based
Protocol: as §2, §3, §4

CD8+ T cells = assay: Apoptosis induction in peripheral blood CD8+ T cells, resting or anti-CD3 Ab-activated; type: cell-based, human; details: galectin (+), 1 μM rGal-9
Protocol: To prepare a well plate coated with anti-CD3 Ab, 24 well palates were incubated with TBS solution (pH 8.0) containing 3 μg/mL anti-CD3 Ab (Inmunotech, Marseille, France) per well at 4° C. overnight, and each well was washed with PBS after removing anti-CD3 Ab solution.
Mononuclear leukocyte fractions were isolated from heparinized blood using HISTOPAQUE (Registered trademark, SIGMA). CD4-Positive Isolation Kit (DYNAL, Oslo, Norway) was used for isolation of CD4+ T cells and Dynabeads M-450 CD8 (Registered trademark, DYNAL, Oslo, Norway) for isolation of CD8+ T cells, respectively, according to the manufacturer's instructions.
To activate T cells, CD4+ or CD8+ cells at 1×10^6 cells/mL in an RPMI-1640 medium containing 10% FCS were incubated on the plate coated with anti-CD3 Ab for 20 to 24 hr at 37° C. in a 5% CO2 incubator, and incubated with rGal-9 [(His)6-Gal-9(S)] at 37° C. in a 5% CO2 incubator. Then apoptosis assay was conducted as described in (c). That is, cells were incubated with 50 μg/mL PI (SIGMA) at 37° C. for 10 min in the dark. Stained cells were analyzed by flow cytometry (Sandstrom, K. et al., J Immunol Methods, 240: 55 (2000) and Zhang L. et al., Cancer Lett, 142: 129 (1999)).
Apoptosis assay was also conducted for non-activated (resting) T cells as described above after incubating them with rGal-9 [(His)6-Gal-9(S)] at 37° C. in a 5% Co2 incubator.
For comparison, galectin-1 and -3 treated cells were analyzed.
Next, apoptosis induction by Gal-9 in human peripheral blood T cells was examined. T cells were separated into CD4+ and CD8+ T cells followed by incubation in the presence or absence of anti-CD3 Ab. Resting T cells and anti-CD3 Ab-activated T cells were incubated with 1 μM rGal-9.

CD4 T Cell = assay: Apoptosis induction in non-activated normal CD4 T cells (Table 4); type: cell-based; details: 1 μM galectin-9, 1 μM galectin-3
Protocol: For example, measurements of apoptosis induction in the presence of 1 μM galectin-9 are as shown in Table 4 below (also 1 μM for galectin-3 in Table 4).

Substance: Galectin-9: Recombinant human galectin-9 expressed in E. coli and purified on lactose-agarose
- effect on DEX-induced apoptosis (eosinophils): inhibits
- effect on anti-Fas Ab-induced apoptosis (eosinophils): stimulates
- apoptosis induction, Gal9 (+) (MCF-7): 14.1
- apoptosis induction, Gal9 (+) (HL-60; HL-60, incubation with galectin-9 at least 48 hr or more): 64.6
- apoptosis induction (HL-60; rGal-9 1 μM, 24 hr, FIG. 3): induced
- apoptosis induction, Gal9 (+) (THP-1; THP-1, incubation with galectin-9 at least 48 hr or more): 61.2
- apoptosis induction (THP-1; rGal-9 1 μM, 24 hr, FIG. 3): induced
- effect of rGal-9 on anti-Fas Ab-induced apoptosis (MOLT-4 cells [1]): additional effects
- effect of rGal-9 on etoposide-induced apoptosis (MOLT-4 cells [1]): additional effects
- percentage (%) of apoptotic cells, rGal-9 with DEX (MOLT-4 cells [1]): scarcely little or no difference
- apoptosis induction, Gal9 (+) (KATO-III): 30.5
- cells that underwent apoptosis, detectable by Annexin V staining (MOLT-4 cells [2]): 69.1%
- apoptosis induction, Gal9 (+) (Jurkat; Jurkat, incubation with galectin-9 at least 48 hr or more): 66.6
- apoptosis induction (Jurkat; rGal-9 1 μM, 24 hr, FIG. 3): induced
- apoptosis induction, CD8 (CD8+ T cells; CD3 (+) cells activated on anti-CD3 Ab-coated plates): 25.7
- apoptosis induction, CD8 (CD8+ T cells; CD3 (−) untreated resting cells): 17.8
- apoptosis induction, CD4 T Cell Resting (CD4 T Cell): 1.8

From patent publication US20060134119A1, “Drugs containing galectin 9” (priority 2003, published 2006)
